Experimental findings from ChEMBL document CHEMBL2069186, “Getting the MAX out of Computational Models: The Prediction of Unbound-Brain and Unbound-Plasma Maximum Concentrations” (ACS Med Chem Lett, 2012) are described below.

Series [1] relates to Plasma. Nature of the series: Dose normalized fCmax in C57BL/6J mouse plasma at 10 mg/kg, po. Also noted: dose 10 mg/kg, route oral. Type of series: ADME, organism-based. The note with it: in vivo.
Series [2] concerns Brain. Nature of the series: Dose normalized fCmax in C57BL/6J mouse brain at 10 mg/kg, po. Type of series: ADME, organism-based. Also noted: dose 10 mg/kg, route oral. Particulars: in vivo.

Take `Nc1ncnc2c1c(COc1cccc(Cl)c1)nn2C1CCOCC1`: the fCmax/dose in series [1] is 180 nM; in series [2], 88 nM.
